17 compounds from patent US20230416202A1, “Small Molecule Compounds and Compositions” (Telo Therapeutics, Inc., priority 2020, published 2023) can be followed below.

Type in all cases: cell-based, human
The subject of one assay is wt TERT. In words: HEK293T hTERT mRNA assay (qPCR). As to the method:
(§1) HepG2 cells (hepatocyte carcinoma (HCC) cells; with mutated TERT) or HEK293T cells (with wild type (wt) TERT) were seeded at 4,000 cells/well in 96-well plates. The following day, test compounds were added to cells for at concentrations of 25 uM, 12.5 uM, 6.25 uM, 3.125 uM, 1.563 uM, 0.781 uM, 0.391 uM, 0.195 uM, 0.098 uM or vehicle control (0.1% DMSO). Each condition was tested in three replicate wells. 48 hours post drug addition, the cells were harvested for RNA using the 96-Magmax RNA Isolation kit (Cat. No. AM1830). RNA was converted to cDNA using the Superscript III First strand cDNA synthesis kit (Cat. No. 18080051). RNA and cDNA concentration and quality were determined using the NanoQuant nucleic acid quantification method. 500 ng cDNA from each sample was used to detect TERT mRNA via qPCR. GUSB was also measured as an internal control and fold change to vehicle control was determined using the delta CT method.
(In general: Real-time PCR tracks product formation cycle by cycle.)

A further assay relates to HepG2 cells. In words: HepG2 cytostatic.
A further assay has as its system Mutant TERT. In words: HepG2 hTERT mRNA assay (qPCR). The settings on record: Homo sapiens; HepG2 cells (mutated TERT), 48 hours, TERT mRNA via qPCR. How it is done: as §1
The next assay relates to HEK293 cells. In words: HEK293 cytostatic. The conditions noted are these: for IC50: read-out: wt Tert IC50 uM HEK293 cytostatic.
Where [1] appears, read: Homo sapiens, HEK-293T, wild type TERT, read-out: wt TERT IC50.
[2] abbreviates: Homo sapiens, HEK293 cells (wt TERT), 48 hours, class symbols, read-out: wt TERT IC50 uM HEK293.
Setting [3] is: Homo sapiens, HEK293, HEK293 cells.

Like-named read-outs stand apart in the source and are kept apart here. Some results are limits rather than exact numbers.

`CC(C(=O)O)[C@@H]1C[C@@H](c2ccc(C(F)(F)F)cc2)CN(Cc2ccc(C(F)(F)F)cc2)C1` (single isomer, unassigned) [Compound 113]: the IC50 with wt TERT (setting [1]) is greater than 25 µM; with wt TERT (setting [2]), greater than 25 µM; in the assay on HepG2 cells (Homo sapiens), 0.5 to 5 µM; in the assay on Mutant TERT it was 0.5 to 5 µM; in the assay on HEK293 cells (HEK293 cells), 5 to 25 µM.

`COc1cccc(CN2C[C@H](CC(=O)O)C[C@@H](c3ccc(C(F)(F)F)cc3)C2)c1` [Compound 110, 2-((3S,5S)-1-(3-methoxybenzyl)-5-(4-(trifluoromethyl)phenyl)piperidin-3-yl)acetic acid]: the IC50 in the assay on wt TERT (setting [1]), with wt TERT (setting [2]) and in the assay on Mutant TERT was greater than 25 µM in each case.

`N#Cc1ccc(CN2C[C@H](CC(=O)O)C[C@@H](c3ccc(C(F)(F)F)cc3)C2)cc1` [Compound 115, 2-((3S,5S)-1-(4-cyanobenzyl)-5-(4-(trifluoromethyl)phenyl)piperidin-3-yl)acetic acid]: the IC50 is greater than 25 µM in the assay on wt TERT (setting [1]); greater than 25 µM in the assay with wt TERT (setting [2]); 0.5 to 5 µM in the assay on HepG2 cells (Homo sapiens); 0.5 to 5 µM in the assay on Mutant TERT; 5 to 25 µM in the assay with HEK293 cells (setting [3]).

Take `CC(C(=O)O)[C@@H]1C[C@@H](c2ccc(C(F)(F)F)cc2)CN(Cc2ccc(C(F)(F)F)cc2)C1` (single isomer, unassigned) [Compound 114]: the IC50 in the assay with wt TERT (HEK293 cells (wt TERT), 48 hours, class symbols, read-out: wt TERT IC50 uM HEK293) was greater than 25 µM; in the assay with wt TERT (wild type TERT, read-out: wt TERT IC50) it was greater than 25 µM; in the assay on HepG2 cells, 0.5 to 5 µM; with HEK293 cells (HEK293 cells), 0.5 to 5 µM.

In the case of `O=C(O)C[C@@H]1C[C@@H](c2ccc(C(F)(F)F)cc2)CN(Cc2cccc(C(F)(F)F)c2)C1` [Compound 111, 2-((3S,5S)-1-(3-(trifluoromethyl)benzyl)-5-(4-(trifluoromethyl)phenyl)piperidin-3-yl)acetic acid], the IC50 in the assay on wt TERT (setting [1]) is greater than 25 µM; with wt TERT (setting [2]), greater than 25 µM; in the assay on Mutant TERT, less than 0.5 µM.

`O=C(O)CC1CC(c2ccc(C(F)(F)F)cc2)CN(Cc2ccc(C(F)(F)F)cc2)C1` (racemic) [Compound 100, rac-2-((anti)-1-(4-(trifluoromethyl)benzyl)-5-(4-(trifluoromethyl)phenyl)piperidin-3-yl)acetic acid]: the IC50 is greater than 25 µM with wt TERT (setting [1]), greater than 25 µM in the assay with wt TERT (setting [2]) and 0.5 to 5 µM in the assay on Mutant TERT. Moreover, the “Cytostatic IC50 uM HepG2 cytostatic” value with HepG2 cells is ““++”-“+””. Also, the “wt Tert IC50 uM HEK293 cytostatic” value in the assay on HEK293 cells (HEK293 cells) is ““++”-“+””.

As for `COc1cc(CN2C[C@H](CC(=O)O)C[C@@H](c3ccc(C(F)(F)F)cc3)C2)cc(C(F)(F)F)c1` [Compound 108, 2-((3S,5S)-1-(3-methoxy-5-(trifluoromethyl)benzyl)-5-(4-(trifluoromethyl)phenyl)piperidin-3-yl)acetic acid], the IC50 in the assay with wt TERT (setting [1]), with wt TERT (setting [2]), in the assay on HepG2 cells (Homo sapiens) and with Mutant TERT was greater than 25 µM throughout.

Consider `COc1ccc([C@H]2C[C@H](CC(=O)O)CN(Cc3ccc(C(F)(F)F)cc3)C2)cc1` (racemic) [Compound 105, 2-((anti)-5-(4-methoxyphenyl)-1-(4-(trifluoromethyl)benzyl)piperidin-3-yl)acetic acid], for which the IC50 in the assay on wt TERT (setting [1]) was greater than 25 µM; in the assay on wt TERT (setting [2]), greater than 25 µM; in the assay on HepG2 cells (Homo sapiens), 5 to 25 µM; in the assay on Mutant TERT it was 0.5 to 5 µM; in the assay with HEK293 cells (setting [3]), 5 to 25 µM.

For `O=C(O)C[C@H]1C[C@H](c2ccc(C(F)(F)F)cc2)CN(Cc2ccc(C(F)(F)F)cc2)C1` [Compound 102, 2-((3R,5R)-1-(4-(trifluoromethyl)benzyl)-5-(4-(trifluoromethyl)phenyl)piperidin-3-yl)acetic acid], the half-maximal inhibitory concentration (IC50) in the assay on wt TERT (setting [1]) was greater than 25 µM; in the assay with wt TERT (setting [2]), greater than 25 µM; with HepG2 cells (Homo sapiens), 5 to 25 µM; with Mutant TERT, 5 to 25 µM; in the assay on HEK293 cells (setting [3]) it was 5 to 25 µM.

For the compound `C#Cc1ccc(CN2C[C@H](CC(=O)O)C[C@@H](c3ccc(C(F)(F)F)cc3)C2)cc1` [Compound 112, 2-((3S,5S)-1-(4-ethynylbenzyl)-5-(4-(trifluoromethyl)phenyl)piperidin-3-yl)acetic acid], the IC50 in the assay with wt TERT (setting [1]) is greater than 25 µM; in the assay on wt TERT (setting [2]) it was greater than 25 µM; in the assay with HepG2 cells (Homo sapiens), 0.5 to 5 µM; with Mutant TERT, less than 0.5 µM; with HEK293 cells (setting [3]), greater than 25 µM.

As to `COc1ccc(CN2C[C@H](CC(=O)O)C[C@@H](c3ccc(C(F)(F)F)cc3)C2)cc1` [Compound 109], the IC50 in the assay with wt TERT (setting [1]) is greater than 25 µM; with wt TERT (setting [2]), greater than 25 µM; with HepG2 cells (Homo sapiens), 0.5 to 5 µM; in the assay on Mutant TERT, greater than 25 µM; with HEK293 cells (setting [3]), 5 to 25 µM.

In the case of `COc1cc([C@H]2C[C@H](CC(=O)O)CN(Cc3ccc(C(F)(F)F)cc3)C2)cc(C(F)(F)F)c1` (racemic) [Compound 106, rac-2-((anti)-5-(3-methoxy-5-(trifluoromethyl)phenyl)-1-(4-(trifluoromethyl)benzyl)piperidin-3-yl)acetic acid], the IC50 was greater than 25 µM with wt TERT (setting [1]); greater than 25 µM in the assay on wt TERT (setting [2]); 0.5 to 5 µM in the assay with HepG2 cells (Homo sapiens); 0.5 to 5 µM with Mutant TERT; 5 to 25 µM in the assay on HEK293 cells (setting [3]).

Consider `COc1cccc([C@H]2C[C@H](CC(=O)O)CN(Cc3ccc(C(F)(F)F)cc3)C2)c1` (racemic) [Compound 103, 2-((anti)-5-(3-methoxyphenyl)-1-(4-(trifluoromethyl)benzyl)piperidin-3-yl)acetic acid], for which the IC50 with wt TERT (setting [1]) was greater than 25 µM; in the assay with wt TERT (setting [2]) it was greater than 25 µM; with HepG2 cells (Homo sapiens), 5 to 25 µM; with Mutant TERT, greater than 25 µM; in the assay on HEK293 cells (setting [3]) it was 5 to 25 µM.

For the compound `O=C(O)C[C@H]1C[C@H](c2cccc(C(F)(F)F)c2)CN(Cc2ccc(C(F)(F)F)cc2)C1` (racemic) [Compound 104, rac-2-((anti)-1-(4-(trifluoromethyl)benzyl)-5-(3-(trifluoromethyl)phenyl)piperidin-3-yl)acetic acid], the IC50 with wt TERT (setting [1]) is greater than 25 µM; in the assay with wt TERT (setting [2]), greater than 25 µM; in the assay on HepG2 cells (Homo sapiens), 5 to 25 µM; in the assay on HEK293 cells (setting [3]), 5 to 25 µM.

For the compound `N#Cc1ccc([C@@H]2C[C@@H](CC(=O)O)CN(Cc3ccc(C(F)(F)F)cc3)C2)cc1` (racemic) [Compound 107, 2-((anti)-5-(4-cyanophenyl)-1-(4-(trifluoromethyl)benzyl)piperidin-3-yl)acetic acid], the IC50 in the assay on wt TERT (setting [1]) is greater than 25 µM; in the assay on wt TERT (setting [2]) it was greater than 25 µM; in the assay on HepG2 cells (Homo sapiens), 5 to 25 µM; in the assay on Mutant TERT, 5 to 25 µM; in the assay on HEK293 cells (setting [3]), greater than 25 µM.

With `C#Cc1ccc([C@H]2C[C@H](CC(=O)O)CN(Cc3ccc(C4(C(F)(F)F)N=N4)cc3)C2)cc1` (racemic) [Compound 136, Anti-2-(5-(4-ethynylphenyl)-1-(4-(3-(trifluoromethyl)-3H-diazirin-3-yl)benzyl)piperidin-3-yl)acetic acid], the half-maximal inhibitory concentration (IC50) in the assay on Mutant TERT lay in the range of 0.5 to 5 µM.

For the compound `[N-]=[N+]=NCc1ccc(CN2C[C@@H](CC(=O)O)C[C@H](c3ccc(N=[N+]=[N-])cc3)C2)cc1` (racemic) [Compound 134, anti-2-(1-(4-(azidomethyl)benzyl)-5-(4-azidophenyl)piperidin-3-yl)acetic acid], in the assay on Mutant TERT, the IC50 was 0.5 to 5 µM.

By IC50 is commonly meant the concentration needed to halve the response being measured.
